Assay results as given in the supplement of paper PMC11061612.

Legend:
Test in all cases: combination Emax (second highest fraction inhibited in the dose matrix, 72 h); higher = more inhibition; extreme values may be limits of the assay
[1] = system: 639-V (Bladder Carcinoma)
Method in brief: (§1)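 After 24 hours at 37°C and 5% CO2 in 1536-well plates, cells in DMEM/F12 or RPMI plus 10% FBS received two-drug dose matrices for 72 hours. Viability came from CellTiter-Glo 2.0 luminescence and was scaled as inhibition, anchored at 0 by vehicle wells and at 1 by blank wells. Combination Emax is taken as the second-highest inhibition in the matrix, and Bliss excess as the observed combination effect less EA + EB − EA·EB, with EA and EB the single-agent effects.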

[2] = system: SK-OV-3 (Ovarian Carcinoma)
Method in brief: as §1

[3] = system: SW626 (Colorectal Carcinoma)
Method in brief: as §1

[4] = system: HCC-15 (Squamous Cell Lung Carcinoma)
Method in brief: as §1

[5] = system: RT-112 (Bladder Carcinoma)
Method in brief: as §1

[6] = system: NCI-H28 (Mesothelioma)
Method in brief: as §1

[7] = system: LU-139 (Small Cell Lung Carcinoma)
Method in brief: as §1

[8] = system: Hs-633T (Other Solid Carcinomas)
Method in brief: as §1

## COc1nnc2ccc(N3CCC(c4ccc(OCCN5CCN(C)C(=O)[C@H]5C)cc4)CC3)nn12 [AZD5153] + Cn1cnc2c(F)c(Nc3ccc(Br)cc3Cl)c(C(=O)NOCCO)cc21 [Selumetinib] (first compound max 1 µM, 7x7, partner max 10 µM)
[1]
  combination Emax: 0.676
[2]
  combination Emax: 0.404
[3]
  combination Emax: 0.881
[4]
  combination Emax: 0.693
[5]
  combination Emax: 0.436
[6]
  combination Emax: 0.502
[7]
  combination Emax: 0.912
[8]
  combination Emax: 0.748

## COc1nnc2ccc(N3CCC(c4ccc(OCCN5CCN(C)C(=O)[C@H]5C)cc4)CC3)nn12 [AZD5153] + CC1(C)CCC(CN2CCN(c3ccc(C(=O)NS(=O)(=O)c4ccc(NCC5CCOCC5)c([N+](=O)[O-])c4)c(Oc4cnc5[nH]ccc5c4)c3)CC2)=C(c2ccc(Cl)cc2)C1 [Venetoclax] (first compound max 1 µM, 7x7, partner max 1 µM)
[1]
  combination Emax: 0.582
[2]
  combination Emax: 0.383
[3]
  combination Emax: 0.689
[4]
  combination Emax: 0.329
[5]
  combination Emax: 0.239
[6]
  combination Emax: 0.487
[7]
  combination Emax: 0.948
[8]
  combination Emax: 0.564

## CC1(C)CCC(CN2CCN(c3ccc(C(=O)NS(=O)(=O)c4ccc(NCC5CCOCC5)c([N+](=O)[O-])c4)c(Oc4cnc5[nH]ccc5c4)c3)CC2)=C(c2ccc(Cl)cc2)C1 [Venetoclax] + CCN(CCO)CCCOc1ccc2c(Nc3cc(CC(=O)Nc4cccc(F)c4)[nH]n3)ncnc2c1 [AZD2811] (first compound max 1 µM, 7x7, partner max 1 µM)
[1]
  combination Emax: 0.248
[2]
  combination Emax: 0.205
[3]
  combination Emax: 0.212
[4]
  combination Emax: 0.781
[5]
  combination Emax: 0.458
[6]
  combination Emax: 0.255
[7]
  combination Emax: 0.668
[8]
  combination Emax: 0.217

## CC1(C)CCC(CN2CCN(c3ccc(C(=O)NS(=O)(=O)c4ccc(NCC5CCOCC5)c([N+](=O)[O-])c4)c(Oc4cnc5[nH]ccc5c4)c3)CC2)=C(c2ccc(Cl)cc2)C1 [Venetoclax] + COc1cc(Nc2ncc3c(n2)-c2ccc(Cl)cc2C(c2c(F)cccc2OC)=NC3)ccc1C(=O)O [Alisertib] (first compound max 1 µM, 7x7, partner max 10 µM)
[1]
  combination Emax: 0.752
[2]
  combination Emax: 0.315
[3]
  combination Emax: 0.314
[4]
  combination Emax: 0.86
[5]
  combination Emax: 0.673
[6]
  combination Emax: 0.348
[7]
  combination Emax: 0.738
[8]
  combination Emax: 0.44

## CC(=O)Nc1cccc(-n2c(=O)n(C3CC3)c(=O)c3c(Nc4ccc(I)cc4F)n(C)c(=O)c(C)c32)c1 [Trametinib] + Cc1nc(-c2cn3c(n2)-c2ccc(-c4cnn(C(C)(C)C(N)=O)c4)cc2OCC3)n(C(C)C)n1 [Taselisib] (first compound max 1 µM, 7x7, partner max 10 µM)
[1]
  combination Emax: 0.718
[2]
  combination Emax: 0.797
[3]
  combination Emax: 0.75
[4]
  combination Emax: 0.987
[5]
  combination Emax: 0.884
[6]
  combination Emax: 0.632
[7]
  combination Emax: 0.143
[8]
  combination Emax: 0.917

## NC1(C(=O)N[C@@H](CCO)c2ccc(Cl)cc2)CCN(c2ncnc3[nH]ccc23)CC1 [Capivasertib] + C[C@@H]1COCCN1C2=NC(=NC(=C2)C3(CC3)[S@](=N)(=O)C)C4=C5C=CNC5=NC=C4 [AZD6738] (first compound max 10 µM, 7x7, partner max 10 µM)
[1]
  combination Emax: 0.496
[2]
  combination Emax: 0.493
[3]
  combination Emax: 0.68
[4]
  combination Emax: 0.367
[5]
  combination Emax: 0.62
[6]
  combination Emax: 0.512
[7]
  combination Emax: 0.25
[8]
  combination Emax: 0.894

## CC1(C)CCC(CN2CCN(c3ccc(C(=O)NS(=O)(=O)c4ccc(NCC5CCOCC5)c([N+](=O)[O-])c4)c(Oc4cnc5[nH]ccc5c4)c3)CC2)=C(c2ccc(Cl)cc2)C1 [Venetoclax] + C[C@@H](Nc1cc(F)cc(F)c1)c1cc(C(=O)N(C)C)cc2c(=O)cc(N3CCOCC3)oc12 [AZD8186] (first compound max 1 µM, 7x7, partner max 3 µM)
[1]
  combination Emax: 0.321
[2]
  combination Emax: 0.433
[3]
  combination Emax: 0.127
[4]
  combination Emax: 0.173
[5]
  combination Emax: 0.472
[6]
  combination Emax: 0.115
[7]
  combination Emax: 0.279
[8]
  combination Emax: 0.186

## C[C@@H](c1ccc2nccn2c1)n1nnc2ncc(-c3cnn(C)c3)nc21 [Savolitinib] + CC1(C)CCC(CN2CCN(c3ccc(C(=O)NS(=O)(=O)c4ccc(NCC5CCOCC5)c([N+](=O)[O-])c4)c(Oc4cnc5[nH]ccc5c4)c3)CC2)=C(c2ccc(Cl)cc2)C1 [Venetoclax] (first compound max 1 µM, 7x7, partner max 1 µM)
[1]
  combination Emax: 0.121
[2]
  combination Emax: 0.121
[3]
  combination Emax: 0.129
[4]
  combination Emax: 0.175
[5]
  combination Emax: 0.156
[6]
  combination Emax: 0.181
[7]
  combination Emax: 0.281
[8]
  combination Emax: 0.16

## NC1(C(=O)N[C@@H](CCO)c2ccc(Cl)cc2)CCN(c2ncnc3[nH]ccc23)CC1 [Capivasertib] + CCN(CCO)CCCOc1ccc2c(Nc3cc(CC(=O)Nc4cccc(F)c4)[nH]n3)ncnc2c1 [AZD2811] (first compound max 10 µM, 7x7, partner max 1 µM)
[1]
  combination Emax: 0.387
[2]
  combination Emax: 0.394
[3]
  combination Emax: 0.292
[4]
  combination Emax: 0.773
[5]
  combination Emax: 0.375
[6]
  combination Emax: 0.416
[7]
  combination Emax: 0.293
[8]
  combination Emax: 0.432

## NC1(C(=O)N[C@@H](CCO)c2ccc(Cl)cc2)CCN(c2ncnc3[nH]ccc23)CC1 [Capivasertib] + CC(C)n1c(=O)n(C)c2cnc3cc(F)c(-c4ccc(OCCCN5CCCCC5)nc4)cc3c21 [AZD1390] (first compound max 10 µM, 7x7, partner max 0.3 µM)
[1]
  combination Emax: 0.252
[2]
  combination Emax: 0.383
[3]
  combination Emax: 0.273
[4]
  combination Emax: 0.26
[5]
  combination Emax: 0.255
[6]
  combination Emax: 0.281
[7]
  combination Emax: 0.0539
[8]
  combination Emax: 0.258
